From patent US10265329B2, “Altering steroid metabolism for treatment of steroid-dependent disease” (THE CLEVELAND CLINIC FOUNDATION, priority 2015, dated 2019)
Read-outs that look alike come from different tables or passages of the source.

Columns and labels:
SRD5A = target: T1, SRD5A (Homo sapiens, UniProt P18405); assay: Conversion of [3H]-AD to 5α-reduced androgens in LAPC4 cells; assay type: cell-based
T1 construct: endogenous in cells; host or cells: LAPC4
T1 sequence (P18405 1-259): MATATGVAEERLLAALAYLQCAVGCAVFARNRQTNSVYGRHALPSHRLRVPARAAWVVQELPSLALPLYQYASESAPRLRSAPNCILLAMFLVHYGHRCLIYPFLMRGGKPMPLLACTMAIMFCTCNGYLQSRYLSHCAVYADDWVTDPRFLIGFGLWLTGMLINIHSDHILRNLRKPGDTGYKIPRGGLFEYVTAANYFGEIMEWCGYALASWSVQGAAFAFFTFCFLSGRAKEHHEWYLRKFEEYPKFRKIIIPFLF
Experimental: Cell Line Metabolism: Cells were seeded and incubated in 12-well plates with 0.2 million cells/well for ˜24 h and then incubated with a mixture of radioactive ([^3H]-labeled) and non-radioactive androgens (final concentration, 100 nM; ˜1,000,000 cpm/well; PerkinElmer, Waltham, Mass.) at 37° C. Aliquots of medium were collected at the indicated times. Collected medium was treated with 1,000 units of β-glucuronidase (Helix pomatia; Sigma-Aldrich) at 65° C. for 2 h, extracted with 860 μL ethyl acetate:isooctane (1:1), and concentrated under nitrogen gas. Xenograft Metabolism: 10^7 LNCaP or VCaP cells were injected subcutaneously with Matrigel into surgically orchiectomized NSG mice that were implanted with 5 mg 90-day sustained-release DHEA pellets (Innovative Research of American, Sarasota, Fla.). Xenografts were harvested when they reached 1000 mm^3, minced, and cultured in DMEM with 10% FBS at 37° C. with mixture of radioactive ([^3H]-labeled) and non-radioactive androgens, or Abi, when they reached 1000 mm^3. Each xenograft was analyzed in triplicate in at least three independent experiments. Aliquots of medium were collected at the indicated times. Collected medium was treated with 1,000 units of β-glucuronidase at 65° C. for 2 h, extracted with 860 μL ethyl acetate:isooctane (1:1), and concentrated under nitrogen gas.
Dried samples were reconstituted in 50% methanol and injected into the HPLC. Steroids and drug metabolites were separated on Kinetex 100×2.1 mm, 2.6 μm particle size C18 reverse-phase column (Phenomenex, Torrance, Calif.) using a methanol/water gradient at 30° C. […] Alternatively, dried samples were applied to plastic-backed silica gel plates and separated by thin-layer chromatography (TLC) using a mobile phase of 3:1 chloroform:ethyl acetate, followed by exposure of the plates to a phosphorimager screen and quantitated with a Storm model 860 phosphorimager (Applied Biosystems, Foster City, Calif.). […] Results are shown as mean±SD.
Collected medium was treated with β-glucuronidase (Helix pomatia; Sigma-Aldrich), extracted with ethyl acetate:isooctane (1:1), and concentrated under nitrogen gas as described. Li et al., 523, 347-351 (2015).
Dried samples were reconstituted in 50% methanol and separated on Kinetex 100×2.1 mm, 2.6 μm particle size C18 reverse-phase column (Phenomenex, Torrance, Calif.) using a methanol/water gradient at 30° C. […] Results are shown as mean±SD.

wild-type AR (LAPC4) = target: T2, wild-type AR (LAPC4) (Homo sapiens, UniProt P10275); assay: AR competition assay with [3H]-R1881 in LAPC4 cells; assay type: binding; settings: for affinity for wild-type AR: [3H]-R1881, 30 min
T2 construct: endogenous in cells; host or cells: LAPC4
T2 sequence (P10275 1-920): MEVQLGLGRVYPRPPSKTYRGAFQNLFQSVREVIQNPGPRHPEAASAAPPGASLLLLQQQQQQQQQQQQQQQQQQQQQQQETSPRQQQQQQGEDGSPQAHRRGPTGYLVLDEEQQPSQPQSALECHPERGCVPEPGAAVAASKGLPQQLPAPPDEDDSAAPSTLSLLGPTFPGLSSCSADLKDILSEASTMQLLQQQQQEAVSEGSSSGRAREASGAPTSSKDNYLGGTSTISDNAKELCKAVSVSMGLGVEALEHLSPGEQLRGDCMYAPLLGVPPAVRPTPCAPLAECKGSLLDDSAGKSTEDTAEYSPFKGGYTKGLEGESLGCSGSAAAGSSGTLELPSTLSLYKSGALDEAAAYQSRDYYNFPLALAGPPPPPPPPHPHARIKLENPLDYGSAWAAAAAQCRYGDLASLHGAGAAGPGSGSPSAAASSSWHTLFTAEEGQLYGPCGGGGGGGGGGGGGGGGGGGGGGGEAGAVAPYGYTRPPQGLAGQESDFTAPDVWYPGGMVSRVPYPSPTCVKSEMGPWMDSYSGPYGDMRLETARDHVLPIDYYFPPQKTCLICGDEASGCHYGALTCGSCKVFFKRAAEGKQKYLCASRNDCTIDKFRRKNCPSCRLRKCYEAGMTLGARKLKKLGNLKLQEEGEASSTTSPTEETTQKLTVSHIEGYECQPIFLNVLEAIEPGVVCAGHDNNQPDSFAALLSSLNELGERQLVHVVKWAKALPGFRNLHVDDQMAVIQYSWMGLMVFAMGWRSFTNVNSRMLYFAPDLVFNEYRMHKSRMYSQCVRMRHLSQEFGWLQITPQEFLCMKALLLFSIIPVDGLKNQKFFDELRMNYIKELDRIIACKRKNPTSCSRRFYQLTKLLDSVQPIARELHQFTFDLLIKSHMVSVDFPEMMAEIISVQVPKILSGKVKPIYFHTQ
Experimental: Cells were cultured in serum-free medium for 48 h and then treated with [^3H]-R1881 and the indicated concentrations of D4A, Abi, enzalutamide, R1881 or bicalutamide for 30 min. Cells were washed with 1×PBS 4 times and 0.9% NaCl solution twice before lysis with RIPA buffer.
Cells were starved with phenol red-free and serum free-medium for at least 48 h and then treated with [^3H]-R1881 and the indicated concentrations of drugs for 30 min. Cells were washed thoroughly with PBS and then lysed with […].

SMILES | SRD5A inhibition activity relative to D4A (SRD5A; LAPC4, [3H]-AD to 5α-dione, 24 hours) | affinity for wild-type AR (wild-type AR (LAPC4)) | SRD5A inhibition activity relative to D4A (SRD5A) | block of conversion from AD to 5α-androstanedione and other 5α-reduced androgens (SRD5A; 10 μM, LAPC4 cells) | IC50 (wild-type AR (LAPC4); competition with 0.1 nM [3H]-R1881, read-out: IC50, affinity for wild-type AR) [nM]
C[C@]12CC[C@@H](O)C[C@@H]1CC[C@@H]1[C@@H]2CC[C@]2(C)C(c3cccnc3)=CC[C@@H]12 [Compound 3α-OH-5α-Abi, 17-(3-pyridyl)-5α-androsta-16-ene-3α-ol] | lose SRD5A inhibition activity | lower |  |  | 
C[C@]12CCC(=O)C[C@@H]1CC[C@@H]1[C@@H]2CC[C@]2(C)C(c3cccnc3)=CC[C@@H]12 [Compound 5α-Abi, 17-(3-pyridyl)-5α-androsta-16-ene-3-one] |  | comparable to that of D4A | lose SRD5A inhibition activity |  | 
C[C@]12CCC(=O)C=C1CC[C@@H]1[C@@H]2CC[C@]2(C)C(c3cccnc3)=CC[C@@H]12 [Compound D4A, 17-(3-Pyridyl)androsta-4,16-dien-3-one] |  |  |  | nearly completely blocks | 7.9
